{"source": "patent US20160045446A1", "about": "“ORAL ADMINISTRATION PREPARATION WITH MASKED BITTERNESS OF SILODOSIN” (KISSEI PHARMACEUTICAL CO., LTD., priority 2013, published 2016)", "assay": "Compatibility test of silodosin with polymer-based materials", "format": "physicochemical", "details": "silodosin:material 1:1 by mass, 40° C., 75% relative humidity, 4 weeks, visual examination", "experimental": "Silodosin and a variety of polymer-based materials were mixed in the mass ratio of 1:1. The mixtures were stored at 40° C. under 75% relative humidity for 4 weeks, and the changes on blending, i.e. incompatibility, were checked. Degradation products were quantified by a liquid chromatography method and a degree of discoloration was checked by visual examination.\nSamples equivalent to 20 mg of silodosin were weighed, and test solutions were prepared and analyzed by the liquid chromatography method. Each peak area was measured by an automatic integration method and a content rate of degradation product (KMD-3241) (%) was calculated by an area percentage method.\nDetector: Ultraviolet Absorption Photometer (Wavelength: 225 nm)", "data": [{"smiles": "C[C@H](Cc1cc2c(c(C(N)=O)c1)N(CCCO)CC2)NCCOc1ccccc1OCC(F)(F)F", "note": "[Silodosin (reference), Silodosin]", "values": [{"measurement": "Color change (fading)", "value": "−"}]}]}
